Data taken from paper PMC4303209, “A novel phosphatidylinositol 3-kinase (PI3K) inhibitor directs a potent FOXO-dependent, p53-independent cell cycle arrest phenotype characterized by the differential induction of a subset of FOXO-regulated genes” (Breast Cancer Research : BCR, 2014).

Tested on: MCF-7 breast cancer cells
Assay: Microarray gene expression analysis (Agilent whole human genome 4 x 44K; compound vs DMSO, LIMMA log2 fold change)
Type: cell-based
Settings: Apoptosis genes

Oc1cccc(-c2nc(N3CCOCC3)c3oc4ncccc4c3n2)c1 [PI-103]
HSPD1 log2FC (Gene 3329): -0.080 | HSPE1 log2FC (Gene 3336): -0.309 | HTR2B log2FC (Gene 3357): -0.397 | IAPP log2FC (Gene 3375): -0.066 | ID1 log2FC (Gene 3397): 0.070 | ID3 log2FC (Gene 3399): -0.082 | IFI16 log2FC (Gene 3428): 0.334 | IFI27 log2FC (Gene 3429): -0.196 | IFIT2 log2FC (Gene 3433): 1.643 | IFIT3 log2FC (Gene 3437): 0.140 | IFNG log2FC (Gene 3458): -0.040 | IGBP1 log2FC (Gene 3476): 0.178 | IGF1 log2FC (Gene 3479): 0.051 | IGF1R log2FC (Gene 3480): 0.084 | IGF2R log2FC (Gene 3482): 0.351 | IGFBP3 log2FC (Gene 3486): 0.086 | IKBKB log2FC (Gene 3551): 0.122 | IL1B log2FC (Gene 3553): 0.035 | IL1RN log2FC (Gene 3557): -0.235 | IL2 log2FC (Gene 3558): -0.008 | IL4 log2FC (Gene 3565): -0.010 | IL6 log2FC (Gene 3569): 0.006 | IL6R log2FC (Gene 3570): 0.551 | IL6ST log2FC (Gene 3572): 0.257 | IL7 log2FC (Gene 3574): 0.210 | IL10 log2FC (Gene 3586): -0.050 | TNFRSF9 log2FC (Gene 3604): -0.328 | ING2 log2FC (Gene 3622): 0.264 | INHBA log2FC (Gene 3624): -0.687 | INHBB log2FC (Gene 3625): -0.799 | INS log2FC (Gene 3630): -0.043 | INPP5D log2FC (Gene 3635): -0.048 | INSL3 log2FC (Gene 3640): -0.069 | IRAK1 log2FC (Gene 3654): -0.233 | IRF1 log2FC (Gene 3659): -0.382 | IRF3 log2FC (Gene 3661): -0.472 | IRF5 log2FC (Gene 3663): 1.340 | IRF7 log2FC (Gene 3665): 0.353 | ITGA1 log2FC (Gene 3672): 0.190 | ITGA5 log2FC (Gene 3678): -0.454 | ITGAV log2FC (Gene 3685): 0.599 | ITGB1 log2FC (Gene 3688): 0.583 | ITPR1 log2FC (Gene 3708): 0.249 | JAG2 log2FC (Gene 3714): 0.522 | JAK2 log2FC (Gene 3717): 0.369 | JAK3 log2FC (Gene 3718): -0.043 | JUN log2FC (Gene 3725): -0.937 | KCNMA1 log2FC (Gene 3778): 0.170 | KNG1 log2FC (Gene 3827): -0.057 | KPNA1 log2FC (Gene 3836): -0.280 | KPNB1 log2FC (Gene 3837): 0.240 | KRT8 log2FC (Gene 3856): -0.277 | KRT18 log2FC (Gene 3875): -0.442 | LCK log2FC (Gene 3932): -0.114 | LEP log2FC (Gene 3952): -0.051 | LGALS7 log2FC (Gene 3963): -0.229 | LIG4 log2FC (Gene 3981): 0.035 | LMNA log2FC (Gene 4000): -0.013 | LMNB1 log2FC (Gene 4001): -0.018 | LRP6 log2FC (Gene 4040): -0.118 | LTBR log2FC (Gene 4055): -0.111 | LTK log2FC (Gene 4058): -0.062 | LYN log2FC (Gene 4067): -0.359 | SMAD3 log2FC (Gene 4088): 0.243 | SMAD6 log2FC (Gene 4091): 0.083 | MAL log2FC (Gene 4118): -0.429 | MAX log2FC (Gene 4149): -0.351 | MCF2 log2FC (Gene 4168): 0.031 | MCL1 log2FC (Gene 4170): -1.349 | MDK log2FC (Gene 4192): 0.235 | MDM2 log2FC (Gene 4193): -0.113 | MECP2 log2FC (Gene 4204): -0.128 | MEF2A log2FC (Gene 4205): -0.174 | MEF2C log2FC (Gene 4208): 0.238 | MEF2D log2FC (Gene 4209): -0.520 | MAP3K5 log2FC (Gene 4217): -0.660 | MEN1 log2FC (Gene 4221): 0.029 | KITLG log2FC (Gene 4254): -0.218 | MGMT log2FC (Gene 4255): -0.055 | MIF log2FC (Gene 4282): 0.230 | MLH1 log2FC (Gene 4292): 0.343 | MAP3K9 log2FC (Gene 4293): -0.693 | MAP3K10 log2FC (Gene 4294): 0.639 | MAP3K11 log2FC (Gene 4296): -0.577 | MMP9 log2FC (Gene 4318): -0.279 | MNAT1 log2FC (Gene 4331): 0.589 | MNT log2FC (Gene 4335): 1.538 | MPO log2FC (Gene 4353): -0.006 | CITED1 log2FC (Gene 4435): -0.101 | MSH2 log2FC (Gene 4436): 0.786 | MSX1 log2FC (Gene 4487): -0.243 | MUC1 log2FC (Gene 4582): -0.282 | MUC2 log2FC (Gene 4583): -0.081 | MUC5AC log2FC (Gene 4586): -0.288 | MUSK log2FC (Gene 4593): -0.262 | MX1 log2FC (Gene 4599): 0.148 | MYC log2FC (Gene 4609): 0.421 | MYD88 log2FC (Gene 4615): -0.601 | GADD45B log2FC (Gene 4616): 0.857 | NBN log2FC (Gene 4683): 0.619 | NDUFS1 log2FC (Gene 4719): 0.294 | NF1 log2FC (Gene 4763): 0.451 | NFATC4 log2FC (Gene 4776): 0.296 | NFE2L2 log2FC (Gene 4780): 0.540 | NFKB1 log2FC (Gene 4790): -0.256 | NFKBIA log2FC (Gene 4792): -0.656 | NGFR log2FC (Gene 4804): -0.069 | NKX3-1 log2FC (Gene 4824): -0.386 | NME1 log2FC (Gene 4830): 0.199 | NME2 log2FC (Gene 4831): 0.205 | NME3 log2FC (Gene 4832): -0.013 | NMT1 log2FC (Gene 4836): -0.214 | NODAL log2FC (Gene 4838): -0.025 | NOS3 log2FC (Gene 4846): -0.168 | NOTCH2 log2FC (Gene 4853): 0.274 | NPM1 log2FC (Gene 4869): 0.282 | NPTX1 log2FC (Gene 4884): -0.756 | NPY5R log2FC (Gene 4889): -0.042 | SLC11A2 log2FC (Gene 4891): 0.320 | NRAS log2FC (Gene 4893): -0.535 | NTF3 log2FC (Gene 4908): -1.099 | NTRK2 log2FC (Gene 4915): -0.265 | NR4A2 log2FC (Gene 4929): 0.442 | OCLN log2FC (Gene 4950): 0.409 | OPA1 log2FC (Gene 4976): 0.350 | TNFRSF11B log2FC (Gene 4982): 0.966 | OSM log2FC (Gene 5008): -0.008 | P2RX1 log2FC (Gene 5023): -0.016 | P2RX4 log2FC (Gene 5025): 0.348 | P2RX7 log2FC (Gene 5027): -0.319 | SERPINB2 log2FC (Gene 5055): -0.093 | PAK1 log2FC (Gene 5058): 0.071 | PAK2 log2FC (Gene 5062): -0.103 | PARK2 log2FC (Gene 5071): -0.149 | PAWR log2FC (Gene 5074): 0.876 | PAX3 log2FC (Gene 5077): -0.114 | PAX4 log2FC (Gene 5078): -0.073 | PAX7 log2FC (Gene 5081): -0.197 | PCNT log2FC (Gene 5116): 0.446 | PDCD1 log2FC (Gene 5133): -0.284 | PDCD2 log2FC (Gene 5134): -0.282 | PDE1A log2FC (Gene 5136): -0.171 | PDK1 log2FC (Gene 5163): 0.405 | PDK2 log2FC (Gene 5164): 1.524 | PDK4 log2FC (Gene 5166): 0.866 | PDPK1 log2FC (Gene 5170): 0.478 | PHB log2FC (Gene 5245): -0.382 | SERPINB9 log2FC (Gene 5272): -0.438 | SERPINB10 log2FC (Gene 5273): 0.028 | PIK3CA log2FC (Gene 5290): 0.818 | PIM1 log2FC (Gene 5292): 1.292 | PIK3R1 log2FC (Gene 5295): 0.203 | PLAGL1 log2FC (Gene 5325): 0.317 | PLAGL2 log2FC (Gene 5326): -1.296 | PLK1 log2FC (Gene 5347): -0.016 | PLSCR1 log2FC (Gene 5359): 0.371 | PMAIP1 log2FC (Gene 5366): -1.121
